≈ marks a conversion by molar mass, not a printed value. Where “and” joins values, the source holds several entries; their conditions need not be identical. Identical values can stand only once. Entries after “also recorded” stand apart in the source; their conditions may differ. Like-named read-outs stand apart in the source and are kept apart here.

The values that follow come from paper PMC11785709, “Angelica gigas Nakai (Korean Dang-gui) Root Alcoholic Extracts in Health Promotion and Disease Therapy – active Phytochemicals and In Vivo Molecular Targets” (Pharmaceutical Research, 2025).

Data set [1] relates to AChE. Also on record: method as in PMID 11374978. To be noted: read-out: AChE inhibition IC50; cited from earlier work.
The subject of data set [2] is AChE. Details: method as in PMID 17382968. Particulars: in vitro test; cited from earlier work.
Data set [3] concerns AChE. Also on record: method as in PMID 17382968. Particulars: ex vivo, 6 h after dose; cited from earlier work.
In the next data set the test system is breast cancer cell. Details: method as in PMID 36830050. Particulars: concentration-dependent; cited from earlier work.
For data set [4], the system named is scopolamine-induced memory disruption. Also on record: method as in PMID 17382968. To be noted: 10 mg/kg, po; cited from earlier work.
The next data set has as its system HFD-induced obese mice. Also on record: method as in PMID 34165214. To be noted: daily oral 10 and 20 mg/kg, 5 weeks; cited from earlier work.
A further data set concerns TNBS-induced colitis. Also on record: method as in PMID 39042157. To be noted: cited from earlier work.
A further data set deals with OVX-induced bone loss. Details: method as in PMID 37866743. To be noted: oral nodakenin; cited from earlier work.
Data set [5] concerns bone marrow stem cells (BMSCs). Details: method as in PMID 37866743. Particulars: cell culture exposure; cited from earlier work.
The test system of data set [6] is RANKL-induced osteoclastogenesis. Details: method as in PMID 37866743. Particulars: cell culture model; cited from earlier work.
Another data set deals with CP-treated mice. Details: method as in PMID 34875347. Particulars: cited from earlier work.
The conditions of data set [7]: cited from earlier work.
The conditions of data set [8]: rat, in vivo, iv; cited from earlier work.
The conditions of data set [9]: rat, in vivo, po, cited from earlier work.
Data set [10] deals with MDA-MB231 sc breast cancer xenograft. Particulars: 30 mg/kg ip twice weekly, 5-week assay; cited from earlier work.
In data set [11] the test system is most sensitive bacterial strain. Put plainly: bactericidal activity of D, MIC. Format: cell-based. Particulars: converted value in brackets; read-out: minimal inhibitory concentration.
In data set [12] the test system is bacteria. Nature of the data set: bactericidal activity of D, MIC (Thailand group). Format: cell-based. To be noted: converted value in brackets.
The next data set concerns AR; ERα. To be noted: cited from earlier work.
For a further data set, the system named is human MAO-A. Details: method as in PMID 28109809. To be noted: cited from earlier work.
In the next data set the test system is MAO-B. Also on record: method as in PMID 28109809. To be noted: screened at 10 μM; cited from earlier work.
The subject of a further data set is GDH. Details: method as in PMID 36455296. Particulars: read-out: GDH inhibition IC50; cited from earlier work.
The subject of a further data set is TRPV1. Also on record: method as in PMID 33806325. To be noted: capsaicin-induced, F11 cell culture; read-out: TRPV1-Ca2+ release IC50; cited from earlier work.
The subject of a further data set is paclitaxel-CINP. Also on record: method as in PMID 33806325. Particulars: cited from earlier work.
The test system of data set [13] is kainic acid (KA)-induced status epilepticus. Details: method as in PMID 25171200. Particulars: D ip 20 mg/kg 30 min prior to KA; cited from earlier work.
In data set [14] the test system is global cerebral ischemia BOCCA model. Details: method as in PMID 33918660. To be noted: cited from earlier work.
The test system of data set [15] is high fat-diet induced obesity. Also on record: method as in PMID 21972114. Particulars: HFD plus D 200 mg/kg (ppm), 7 weeks; cited from earlier work.
In the next data set the test system is HepG2 cells. Also on record: method as in earlier work. To be noted: free fatty acid mixture (oleate:palmitate = 2:1); cited from earlier work.
For data set [16], the system named is adipose stem cells (ASCs). Also on record: method as in PMID 31861646. Particulars: cited from earlier work.
In data set [17] the test system is collagen/epinephrine-induced thromboembolism. Details: method as in PMID 34575088. To be noted: D at 12.5 mg/kg; cited from earlier work.
Data set [18] deals with most sensitive bacterial strain. Details: method as in PMID 12877552. To be noted: cited from earlier work.
Data set [19] relates to bacteria. Also on record: method as in doi:10.7324/JAPS201331012. Particulars: cited from earlier work.
For data set [20], the system named is destabilization of medial meniscus (DMM) OA. Also on record: method as in PMID 33878544. Particulars: daily gavage, 20 mg/kg, 8 weeks after DMM; cited from earlier work.
A further data set relates to hair growth. Details: method as in PMID 32823713. To be noted: cited from earlier work.
For data set [21] the following is noted: cited from earlier work. This is another data set of the same source.
In the next data set the test system is CYP2C19 and 3A4. Particulars: cited from earlier work.
For a further data set, the system named is carboxyesterase-2 (CES2). Particulars: cited from earlier work.
The conditions of data set [22]: oral AGN 100 mg per rat (~ 300 mg/kg bw); cited from earlier work.
In data set [23] the test system is acute thermal pain models and CINP. Details: method as in PMID 36249788. Particulars: once-daily ip; hot plate, tail-flick and CINP mice; cited from earlier work.
The mark [24] stands for this setting: topical 0.15% D or 2% AGN root extract.

The term IC50 denotes the concentration that gives 50% inhibition. For the compound `CC(C)(O[C@@H]1O[C@H](CO)[C@@H](O)[C@H](O)[C@H]1O)[C@H]1Cc2cc3ccc(=O)oc3cc2O1` [Nodakenin, nodakenin], the concentration for half-maximal inhibition (IC50) with AChE [1] was 68000 nM. Further, the IC50 with AChE [2] is 84700 nM. Also, in the data set on AChE [3], the “brain slice AChE activity” value is “lowered”. Besides, in the data set with breast cancer cell, the “breast cancer cell viability” value is “inhibited breast cancer cell viability”. Further, in data set [4], the scopolamine-induced memory disruption result is on record as “ameliorate”. Besides, the “suppression of weight gain, dyslipidemia and fatty liver” value in the data set with HFD-induced obese mice is reported as “comparable potency to orlistat”. In addition, in the data set on TNBS-induced colitis (colon sample, 40 mg/kg), the “downregulation of COX-2 mRNA expression” value is 1.98 fold, the “downregulation of IL-1β mRNA expression” value was 1.29 fold, the “downregulation of IL-18 mRNA expression” value was 1.17 fold and the “downregulation of NFƙB mRNA expression” value is 1.24 fold. In the data set on TNBS-induced colitis (colon sample, 40 mg/kg), the “downregulation of NLRP3 mRNA expression” value is 1.78 fold and the “downregulation of iNOS mRNA expression” value is on record as 1.2 fold. Further, the “disease activity index (DAI) score” value with TNBS-induced colitis (gavage 10, 20, and 40 mg/kg) is listed as “lowered the DAI score”. For the same compound, the bone mass result in the data set with OVX-induced bone loss is given as “elevated mouse bone mass”. For the same compound, in [5], the osteogenic differentiation result is “promoted osteogenic differentiation”. For the same compound, the osteoclastogenesis result in [6] is “inhibited RANKL-induced osteoclastogenesis”. For the same compound, the “levels of IFN-γ, IL-12, IL-2, IL-6, and TNF-α in serum and spleen” value with CP-treated mice was “increased”. In [7] (in vivo), the “apparent volume of distribution Vd” value is reported as 2800 L and the t1/2 is 6.28 h. For the same compound, in data set [8], the t1/2 is given as 3.3 h. Besides, the t1/2 in [9] (2.5 mg/kg) is given as 4.6 h. Moreover, the t1/2 in data set [9] (10 mg/kg) is 6.2 h. Further, in data set [10], the xenograft growth inhibition is ~ 88%.

A word on the Ki: it is the dissociation constant of the complex between target and ligand, obtained from inhibition or displacement. On to `CC(C)=CC(=O)O[C@H]1Cc2cc3ccc(=O)oc3cc2OC1(C)C` [D, decursin], for which the MIC was roughly 38 µM (≈ 12.5 µg/mL) in [11], roughly 98 µM (≈ 32.2 µg/mL) against bacteria [12] and ~ 32 mg/L with bacteria [19]. Also, the half-maximal inhibitory concentration (IC50) in the data set on AChE [1] is 390000 nM; in the data set with AR; ERα (antagonist/degrader), roughly 5000 nM; in the data set on human MAO-A (read-out: MAO-A inhibition IC50), 1890 nM; with GDH it was ~1000 nM and 1000 nM; with TRPV1 it was roughly 1000 nM. In addition, the “mode of action on AR and ERα” value in the data set on AR; ERα (responsive cancer cell culture models) is given as “antagonists/degraders”. Further, at human MAO-A (reversible and competitive inhibitor), the Ki is 170 nM. In addition, the “inhibitory activity on MAO-B” value in the data set on MAO-B is “lacked any inhibitory activity”. Also, the mechanical allodynia relief entry in the data set with paclitaxel-CINP (first it injection of D 50 mg/kg) is “no relief”. In addition, in the data set with paclitaxel-CINP (second and third it injections), the “duration of blunted allodynia” value is reported as “up to 3 h”. Besides, the behavioral seizure activity entry in [13] was “decreased behavioral seizure activity”. Also, the “protection of CA1 pyramidal neurons” value in [14] (oral post-ischemia, AGN 350 and 400 mg/kg or D 25 mg/kg) is listed as “spared the pyramidal neurons from ischemic death; also recorded: detectable protection”. For the same compound, the “spatial memory (8-ARMT) and learning memory (PAT)” value in data set [14] (post-treatment, 5 days following BOCCA) is “preserved spatial memory”. Further, the weight gain result in [15] is listed as “decreased weight gain”. For the same compound, in the data set on HepG2 cells, the lipid accumulation result is recorded as “suppressed lipid accumulation”. In data set [16], the adipocyte differentiation result was “significantly inhibited adipocyte differentiation”. The protection against thromboembolism result in data set [17] is given as “replicated the protective effect”. In addition, in data set [18], the minimal inhibitory concentration is given as ~ 12.5 mg/L. The “destruction of articular cartilage” value in data set [20] is “attenuated the destruction of articular cartilage”. Further, the “time at which hair growth was complete” value with hair growth (setting [24]) is on record as 17 days. The “time from which hair growth was visibly facilitated” value in the data set with hair growth (setting [24]) is 7 days. Moreover, in the data set with hair growth (topical twice a day 17 days, 0.15% D or 2% AGN root extract), the hair growth result was “promoted hair growth in equal efficacy”. The “relative circulating Cmax and AUC” value in data set [21] (in vivo) was roughly 1 ×. Also, the “relative plasma Cmax” value in data set [21] (in vivo) is reported as 1 x. In addition, the Cmax in data set [21] (read-out: mean peak concentration Cmax, 10 men and 10 women, 800 mg INM176 AGN oral) is 5.3 nM. Besides, the t1/2 in data set [7] (4.6 g AGN root powder per subject) is on record as 3.03 h. Besides, the tmax in data set [7] (in vivo) was 0.44 h. In the data set on CYP2C19 and 3A4, the “Cyp isoforms for metabolism to DOH” value is “major human isoforms”. Further, the “CES2 contribution to metabolism to DOH” value in the data set on carboxyesterase-2 (CES2) is reported as “further contributed”. The “elimination of plasma D” value in data set [22] is “barely detectable after 7 h”. For the same compound, the “time of peak absorption, plasma D” value in [22] is listed as “around 4 h”.

`CN1CC[C@]23c4c5ccc(O)c4O[C@H]2[C@@H](O)C=C[C@H]3[C@H]1C5` [morphine, reference compound]: the “time to tolerance development” value in data set [23] is less than 3 days.
